Results: PMC4911001, “Synthesis and Biological Evaluation of Novel Phosphatidylcholine Analogues Containing Monoterpene Acids as Potent Antiproliferative Agents” (PLoS ONE, 2016)

Experiments:
[1] = system: MV4-11 (human biphenotypic B myelomonocytic leukaemia); assay: Antiproliferative assay in vitro, MTT test, MV4-11; assay type: cell-based; conditions: mean ± SD of 3–5 independent experiments, n.a. = no activity in concentration of 5, 25, 125, 625 μM
Method: (§1) Established in vitro, human cancer cell lines: MV4-11 (human biphenotypic B myelomonocytic leukaemia), A-549 (non-small cell lung cancer), MCF-7 (breast cancer), LoVo (colon cancer), LoVo/DX (colon cancer drug resistant), HepG2 (liver cancer) and BALB/3T3 (normal mice fibroblasts) were used.
(§2) The leukaemia cell line was cultured in RPMI 1640 medium (IIET, Wroclaw, Poland) with supplemented with 2 mM L-glutamine adjusted to contain 1.0 mM sodium pyruvate, 10% fetal bovine serum (all from Sigma-Aldrich Chemie GmbH, Steinheim, Germany). A549, LoVo and LoVo/DX cells were cultured in the mixture of RPMI 1640+Opti-MEM (1:1) (both from Gibco, Scotland, UK), MCF-7 cells in Eagle medium (IIET, Wroclaw, Poland), HepG2 in DMEM medium (Gibco, Scotland, UK), BALB/3T3 in DMEM medium (IIET, Wroclaw, Poland) supplemented with 2 mM L-glutamine and 1.0 mM sodium pyruvate, 10% fetal bovine serum (all from Sigma-Aldrich, Germany). The MCF-7 cell culture was supplemented with 0.8 mg/L of insulin (Sigma-Aldrich Chemie GmbH, Steinheim, Germany) and the LoVo/DX cell culture was supplemented with 0.1 μg/mL of doxorubicin (Accord). All culture media were supplemented with 100 units/mL penicillin, and 100 μg/mL streptomycin (both from Polfa Tarchomin S.A., Warsaw, Poland). All cell lines were grown at 37°C with 5% CO2 humidified atmosphere.
(§3) Prior to usage, the compounds were dissolved in DMSO or in mixture of 99.8% ethanol and DMSO (1:1) to the concentration of 25 or 50 mM, and subsequently diluted in culture medium to reach the required concentrations (ranging from 5 to 625 μM).
(§4) 24 hours before addition of the tested compounds, the cells were plated in 96-well plates at density of 1×10^4 cells per well. An assay was performed after 72 hours exposure to varying concentrations of the tested agents.
(§5) Cytotoxic test MTT was applied for the cytotoxicity screening against leukaemia cells growing in suspension culture and were carried out according to the method described before. Cytotoxic test SRB was applied against A549, MCF-7, LoVo, LoVo/DX, BALB/3T3 and HepG2 cells and were carried out according to the method described before.
(§6) The results were calculated as an IC50 (inhibitory concentration 50)–the concentration of tested agent, which inhibits proliferation of 50% of the cell population. Each compound in each concentration was tested in triplicate in a single experiment, which was repeated 3–5 times.

[2] = system: A-549 (non-small cell lung cancer); assay: Antiproliferative assay in vitro, SRB test, A-549; assay type: cell-based, human; conditions: mean ± SD of 3–5 independent experiments, n.a. = no activity in concentration of 5, 25, 125, 625 μM
Method: as §1, §2, §3, §4, §5, §6

[3] = system: MCF-7 (breast cancer); assay: Antiproliferative assay in vitro, SRB test, MCF-7; assay type: cell-based, human; conditions: mean ± SD of 3–5 independent experiments, n.a. = no activity in concentration of 5, 25, 125, 625 μM
Method: as §1, §2, §3, §4, §5, §6

[4] = system: LoVo (colon cancer); assay: Antiproliferative assay in vitro, SRB test, LoVo; assay type: cell-based, human; conditions: 72 hours exposure, mean ± SD of 3–5 independent experiments, n.a. = no activity in concentration of 5, 25, 125, 625 μM
Method: as §1, §2, §3, §4, §5, §6

[5] = system: LoVo/DX (colon cancer drug resistant); assay: Antiproliferative assay in vitro, SRB test, LoVo/DX; assay type: cell-based, human; conditions: 72 hours exposure, doxorubicin-resistant line, mean ± SD of 3–5 independent experiments, n.a. = no activity in concentration of 5, 25, 125, 625 μM
Method: as §1, §2, §3, §4, §5, §6

[6] = system: HepG2 (liver cancer); assay: Antiproliferative assay in vitro, SRB test, HepG2; assay type: cell-based, human; conditions: mean ± SD of 3–5 independent experiments, n.a. = no activity in concentration of 5, 25, 125, 625 μM
Method: as §1, §2, §3, §4, §5, §6

[7] = system: BALB/3T3 (normal mice fibroblasts); assay: Antiproliferative assay in vitro, SRB test, BALB/3T3; assay type: cell-based; conditions: mean ± SD of 3–5 independent experiments, n.a. = no activity in concentration of 5, 25, 125, 625 μM
Method: as §1, §2, §3, §4, §5, §6

[8] = system: drug resistant LOVO/DX line versus drug sensitive LoVo line; assay: Resistance index (RI), LoVo/DX versus LoVo; assay type: cell-based, human; conditions: RI = IC50 LoVo/DX / IC50 LoVo; 0<RI<2 able to overcome drug resistance; 2<RI<10 moderate ability; RI>10 no influence
Method: Using the obtained IC50 values, the resistance indexes (RI) were calculated by dividing the IC50 values of the compounds tested against the cells of drug resistant cell LOVO/DX line by respective values obtained against the cells of drug sensitive LoVo line. According to Harker et al. three categories of the cells could be distinguished: (a) the cells are drug-sensitive—if the ratio approaches 0–2; (b) the cells are moderately drug-resistant—if the ratio ranges from 2 to 10; (c) the cells are markedly drug-resistant—if the ratio is higher than 10.
We calculated also the resistance indexes (RI) by dividing the IC50 values of the compounds tested against the cells of drug resistant cell LoVo/DX by respective values obtained against the drug sensitive LoVo cell line (Table 2). […] Compounds 7a, 7b and 10b have the highest ability to overcome the barrier of resistance (RI = 1.08, 1.06 and 1.09).

[9] = system: tested cancer cell lines; assay: Antiproliferative activity compared with free terpene acids, cancer cell line panel; assay type: cell-based, human; conditions: for antiproliferative activity, fold higher than free acids: compared with free terpene acids; for IC50 values, fold lower than those of free terpene acids 1a, 1b: towards leukaemia, LoVo, LOVO/DX and breast cell lines
Method: as §4, §5, §6
The aim of this study was to determine whether a joining the terpenes with PC has impact on their biological activity. Increasing the lipophilicity of active compounds was expected to raise their cytotoxicity. We observed that almost all synthesized compounds were cytotoxic against tested cancer cell lines. […] Upon careful evaluation of data it can be concluded that cytotoxic activity of terpene-modified PCs is depended on the position of terpene moiety in the backbone of PC. […] These compounds stronger than corresponding acids inhibit the proliferation of cancer cells. […] Their IC50 values were more than 9-fold lower than those determined for free terpene acids 1a, 1b towards leukaemia, LoVo, LOVO/DX and breast cell lines. […] Generally, activity of terpene-modified PC increased in the following sequence: 1-isoprenoyl-LPC < diisoprenoyl-PC < monoisoprenoyl-PC.

[10] = Homo sapiens, MV4-11, 72 hours exposure
[11] = Homo sapiens, A549, 72 hours exposure
[12] = Homo sapiens, MCF7, 72 hours exposure
[13] = Homo sapiens, HepG2, 72 hours exposure
[14] = Mus musculus, BALB/3T3, 72 hours exposure

Compound | IC50 [1, 10] [µM] | IC50 [2, 11] [µM] | IC50 [3, 12] [µM] | IC50 ([4]; Homo sapiens, LoVo) [µM] | IC50 ([5]; Homo sapiens, LoVo/DX) [µM] | IC50 [6, 13] [µM] | IC50 [7, 14] [µM] | Resistance index (RI) [8] | antiproliferative activity, fold higher than free acids [9] | IC50 values, fold lower than those of free terpene acids 1a, 1b [9] | IC50 ±SD, A-549 ([2]; 72 hours exposure) | IC50 ±SD, HepG2 ([6]; 72 hours exposure) | IC50 ([1]; 72 hours exposure) [µM] | IC50 ([2]; 72 hours exposure) [µM] | IC50 ([3]; 72 hours exposure) [µM] | IC50 [4] [µM] | IC50 [5] [µM] | IC50 ([6]; 72 hours exposure) [µM] | IC50 ([7]; 72 hours exposure) [µM]
CC(C)=CCCC(C)=CC(=O)OC[C@H](COP(=O)([O-])OCC[N+](C)(C)C)OC(=O)C=C(C)CCC=C(C)C (mixture of isomers) [Compound 3a] | 96.7 ± 33.9 | 274 ± 9.42 | 236 ± 21.3 | 248 ± 9.3 | 279 ± 10.8 | 285 ± 5 | 273 ± 6.76 | 1.12 | 2-3 fold |  |  |  |  |  |  |  |  |  | 
CCCCCCCCCCCCCCCC(=O)OC[C@H](COP(=O)([O-])OCC[N+](C)(C)C)OC(=O)C=C(C)CCC=C(C)C (mixture of isomers) [Compound 7a, 1'-palmitoyl-2'-(E)-geranoyl-sn-glycero-3'-phosphocholine + 1'-palmitoyl-2'-(Z)-geranoyl-sn-glycero-3'-phosphocholine] | 60.9 ± 10.9 | 72.1 ± 14.4 | 105 ± 6.51 | 51.1 ± 5.1 | 55 ± 2.12 | 200 ± 6.1 | 186 ± 15.2 | 1.08 |  | more than 9 fold |  |  |  |  |  |  |  |  | 
CC(C)=CCCC(C)=CC(=O)OC[C@@H](O)COP(=O)([O-])OCC[N+](C)(C)C (mixture of isomers) [Compound 9a] | 324 ± 116 |  | 523 ± 97.2 | 246 ± 9.9 | 526 ± 89.6 |  |  |  |  |  | not active | not active |  |  |  |  |  |  | 
CCCCCCCCCCCCCCCC(=O)O[C@H](COC(=O)C=C(C)CCC=C(C)C)COP(=O)([O-])OCC[N+](C)(C)C (mixture of isomers) [Compound 10a] | 38.2 ± 9.3 | 49.5 ± 1.88 | 52.5 ± 5.9 | 34.6 ± 1.6 | 51.9 ± 6.7 | 70.3 ± 8.6 | 65.8 ± 3.34 | 1.5 |  | more than 9 fold |  |  |  |  |  |  |  |  | 
N.N.[Cl][Pt][Cl] [Cisplatin, reference compound] |  |  |  |  |  |  |  |  |  |  |  |  | 1.3 ± 0.47 | 8.6 ± 0.7 | 8.1 ± 0.03 | 2.56 ± 0.35 | 3.17 ± 0.2 | 2.38 ± 0.64 | 4.2 ± 1.1
CC(C)=CCCC(C)=CC(=O)O [Compound 1a, Geranic acid, reference compound] | 311 ± 96.4 |  | 447 ± 72 | 263 ± 32 | 492 ± 44.5 |  |  | 1.87 |  |  | did not showed any reduction of cells growth | did not showed any reduction of cells growth |  |  |  |  |  |  | 
CC(C)=CCCC(C)CC(=O)O (stereo not drawn) [Compound 1b, citronellic acid, reference compound] | 254 ± 68 |  | 453 ± 96 | 249 ± 26.4 | 533 ± 36.7 |  |  |  |  |  | did not showed any reduction of cells growth | did not showed any reduction of cells growth |  |  |  |  |  |  | 
CC(C)=CCCC(C)CC(=O)OC[C@H](COP(=O)([O-])OCC[N+](C)(C)C)OC(=O)CC(C)CCC=C(C)C (stereo partly drawn) [Compound 3b] | 130 ± 37.8 | 203 ± 47.7 | 243 ± 45.1 | 194 ± 22 | 251 ± 23.4 | 280.7 ± 1.8 | 284 ± 6.3 | 1.3 | 2-3 fold |  |  |  |  |  |  |  |  |  | 
CCCCCCCCCCCCCCCC(=O)OC[C@H](COP(=O)([O-])OCC[N+](C)(C)C)OC(=O)CC(C)CCC=C(C)C (stereo partly drawn) [Compound 7b] | 45.7 ± 7.63 | 61.2 ± 6 | 155 ± 88.3 | 53.9 ± 2.97 | 57.1 ± 2.5 | 103 ± 11.1 | 112 ± 29.3 | 1.06 |  | more than 9 fold |  |  |  |  |  |  |  |  | 
CC(C)=CCCC(C)CC(=O)OC[C@@H](O)COP(=O)([O-])OCC[N+](C)(C)C (stereo partly drawn) [Compound 9b] | 382 ± 24.5 |  |  | 287 ± 35.1 | 552 ± 18.5 |  |  | 1.93 |  |  |  |  |  |  |  |  |  |  | 
CCCCCCCCCCCCCCCC(=O)O[C@H](COC(=O)CC(C)CCC=C(C)C)COP(=O)([O-])OCC[N+](C)(C)C (stereo partly drawn) [Compound 10b] | 57.1 ± 6.37 | 60.2 ± 6.4 | 209 ± 25.7 | 52.4 ± 3.6 | 57 ± 1.8 | 233 ± 14.7 | 92.9 ± 15.3 | 1.09 |  | more than 9 fold |  |  |  |  |  |  |  |  | 
COc1cccc2c1C(=O)c1c(O)c3c(c(O)c1C2=O)C[C@@](O)(C(=O)CO)C[C@@H]3O[C@H]1C[C@H](N)[C@H](O)[C@H](C)O1 [Doxorubicin, reference compound] |  |  |  | 0.117 ± 0.012 | 6.53 ± 0.93 |  |  | 55.81 |  |  |  |  |  |  |  |  |  |  | 
